Measurements as given in ChEMBL document CHEMBL4507319 (2021).

Tests used:
[1] = target: Tyrosine-protein kinase ABL1 (Homo sapiens) (UniProt P00519); test: Abl(h) Eurofins kinase panel; conditions: Compound concentration 1.0 uM
[2] = target: Protein-tyrosine kinase 6 (Homo sapiens) (UniProt Q13882); test: BRK(h) Eurofins kinase panel; conditions: Compound concentration 1.0 uM
[3] = target: T1, Rhodopsin kinase GRK1 (Homo sapiens) (UniProt Q15835); test: GRK1(h) Eurofins kinase panel; conditions: Compound concentration 1.0 uM
T1 sequence (whole entry): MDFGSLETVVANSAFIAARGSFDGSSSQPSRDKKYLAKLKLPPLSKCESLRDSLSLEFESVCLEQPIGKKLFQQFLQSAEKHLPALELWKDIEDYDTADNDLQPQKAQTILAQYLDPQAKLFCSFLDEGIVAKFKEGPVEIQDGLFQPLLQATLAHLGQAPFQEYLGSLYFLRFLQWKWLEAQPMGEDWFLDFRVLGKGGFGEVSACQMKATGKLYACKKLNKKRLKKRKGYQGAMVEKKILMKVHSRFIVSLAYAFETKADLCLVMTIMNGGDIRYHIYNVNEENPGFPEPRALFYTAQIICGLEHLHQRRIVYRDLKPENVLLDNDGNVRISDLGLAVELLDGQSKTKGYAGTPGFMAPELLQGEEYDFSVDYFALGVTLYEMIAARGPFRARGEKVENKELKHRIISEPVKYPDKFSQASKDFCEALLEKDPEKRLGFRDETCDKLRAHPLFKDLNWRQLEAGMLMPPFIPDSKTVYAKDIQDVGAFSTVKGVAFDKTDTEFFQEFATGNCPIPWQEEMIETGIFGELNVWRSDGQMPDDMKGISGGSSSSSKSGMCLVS

[4] = target: Leukocyte tyrosine kinase receptor (Homo sapiens) (UniProt P29376); test: LTK(h) Eurofins kinase panel; conditions: Compound concentration 1.0 uM
Leukocyte tyrosine kinase receptor (Homo sapiens), sequence (P29376 whole entry): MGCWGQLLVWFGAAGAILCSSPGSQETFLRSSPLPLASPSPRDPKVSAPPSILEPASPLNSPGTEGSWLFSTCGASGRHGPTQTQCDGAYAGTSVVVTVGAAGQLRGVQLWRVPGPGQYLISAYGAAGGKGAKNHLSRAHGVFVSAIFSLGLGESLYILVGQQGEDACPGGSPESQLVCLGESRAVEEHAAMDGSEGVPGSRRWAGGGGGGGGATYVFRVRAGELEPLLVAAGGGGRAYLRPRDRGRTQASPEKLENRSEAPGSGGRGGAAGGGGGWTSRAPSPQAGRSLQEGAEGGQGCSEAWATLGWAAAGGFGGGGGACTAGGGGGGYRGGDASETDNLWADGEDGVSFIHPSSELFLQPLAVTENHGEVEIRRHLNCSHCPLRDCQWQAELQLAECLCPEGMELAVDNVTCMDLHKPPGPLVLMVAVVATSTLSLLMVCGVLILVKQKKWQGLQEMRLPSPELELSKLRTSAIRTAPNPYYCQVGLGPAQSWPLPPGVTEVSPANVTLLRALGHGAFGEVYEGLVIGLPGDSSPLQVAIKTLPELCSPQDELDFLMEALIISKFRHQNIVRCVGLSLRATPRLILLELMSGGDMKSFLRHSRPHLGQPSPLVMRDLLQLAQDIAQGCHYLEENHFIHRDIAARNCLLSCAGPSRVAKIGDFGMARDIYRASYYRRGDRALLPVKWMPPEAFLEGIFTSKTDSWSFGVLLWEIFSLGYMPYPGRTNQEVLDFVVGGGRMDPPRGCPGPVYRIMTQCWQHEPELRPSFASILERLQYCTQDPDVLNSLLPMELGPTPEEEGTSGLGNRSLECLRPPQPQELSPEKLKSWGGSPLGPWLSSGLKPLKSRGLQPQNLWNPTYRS

[5] = target: T2, Serine/threonine-protein kinase D2 (Homo sapiens) (UniProt Q9BZL6); test: PKD2(h) Eurofins kinase panel; conditions: Compound concentration 1.0 uM
T2 sequence (whole entry): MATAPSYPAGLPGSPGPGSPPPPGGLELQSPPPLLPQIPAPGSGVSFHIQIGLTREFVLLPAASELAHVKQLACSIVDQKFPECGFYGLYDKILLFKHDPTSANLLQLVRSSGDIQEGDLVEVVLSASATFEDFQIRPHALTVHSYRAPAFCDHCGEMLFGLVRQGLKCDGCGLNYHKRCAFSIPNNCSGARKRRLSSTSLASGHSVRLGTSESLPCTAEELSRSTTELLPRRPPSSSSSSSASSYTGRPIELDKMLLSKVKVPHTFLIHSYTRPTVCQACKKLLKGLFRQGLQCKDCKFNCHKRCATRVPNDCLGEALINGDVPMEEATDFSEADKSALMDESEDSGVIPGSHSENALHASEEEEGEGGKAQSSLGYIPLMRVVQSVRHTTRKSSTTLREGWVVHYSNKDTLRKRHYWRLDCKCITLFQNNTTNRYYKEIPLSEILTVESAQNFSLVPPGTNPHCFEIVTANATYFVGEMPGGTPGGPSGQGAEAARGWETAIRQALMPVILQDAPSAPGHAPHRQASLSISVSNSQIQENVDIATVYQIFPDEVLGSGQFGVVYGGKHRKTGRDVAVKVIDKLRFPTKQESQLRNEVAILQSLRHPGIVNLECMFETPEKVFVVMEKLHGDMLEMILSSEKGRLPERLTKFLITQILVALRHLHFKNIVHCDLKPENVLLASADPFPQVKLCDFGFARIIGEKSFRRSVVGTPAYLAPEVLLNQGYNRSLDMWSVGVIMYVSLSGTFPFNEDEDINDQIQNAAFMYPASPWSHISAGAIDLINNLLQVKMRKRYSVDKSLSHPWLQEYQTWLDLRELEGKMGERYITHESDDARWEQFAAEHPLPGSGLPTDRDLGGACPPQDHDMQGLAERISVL

[6] = target: T3, Phosphatidylinositol 3-kinase C2 domain-containing subunit gamma (Homo sapiens) (UniProt O75747); test: PI3KC2g(h) Eurofins kinase panel; conditions: Compound concentration 1.0 uM
T3 sequence (whole entry): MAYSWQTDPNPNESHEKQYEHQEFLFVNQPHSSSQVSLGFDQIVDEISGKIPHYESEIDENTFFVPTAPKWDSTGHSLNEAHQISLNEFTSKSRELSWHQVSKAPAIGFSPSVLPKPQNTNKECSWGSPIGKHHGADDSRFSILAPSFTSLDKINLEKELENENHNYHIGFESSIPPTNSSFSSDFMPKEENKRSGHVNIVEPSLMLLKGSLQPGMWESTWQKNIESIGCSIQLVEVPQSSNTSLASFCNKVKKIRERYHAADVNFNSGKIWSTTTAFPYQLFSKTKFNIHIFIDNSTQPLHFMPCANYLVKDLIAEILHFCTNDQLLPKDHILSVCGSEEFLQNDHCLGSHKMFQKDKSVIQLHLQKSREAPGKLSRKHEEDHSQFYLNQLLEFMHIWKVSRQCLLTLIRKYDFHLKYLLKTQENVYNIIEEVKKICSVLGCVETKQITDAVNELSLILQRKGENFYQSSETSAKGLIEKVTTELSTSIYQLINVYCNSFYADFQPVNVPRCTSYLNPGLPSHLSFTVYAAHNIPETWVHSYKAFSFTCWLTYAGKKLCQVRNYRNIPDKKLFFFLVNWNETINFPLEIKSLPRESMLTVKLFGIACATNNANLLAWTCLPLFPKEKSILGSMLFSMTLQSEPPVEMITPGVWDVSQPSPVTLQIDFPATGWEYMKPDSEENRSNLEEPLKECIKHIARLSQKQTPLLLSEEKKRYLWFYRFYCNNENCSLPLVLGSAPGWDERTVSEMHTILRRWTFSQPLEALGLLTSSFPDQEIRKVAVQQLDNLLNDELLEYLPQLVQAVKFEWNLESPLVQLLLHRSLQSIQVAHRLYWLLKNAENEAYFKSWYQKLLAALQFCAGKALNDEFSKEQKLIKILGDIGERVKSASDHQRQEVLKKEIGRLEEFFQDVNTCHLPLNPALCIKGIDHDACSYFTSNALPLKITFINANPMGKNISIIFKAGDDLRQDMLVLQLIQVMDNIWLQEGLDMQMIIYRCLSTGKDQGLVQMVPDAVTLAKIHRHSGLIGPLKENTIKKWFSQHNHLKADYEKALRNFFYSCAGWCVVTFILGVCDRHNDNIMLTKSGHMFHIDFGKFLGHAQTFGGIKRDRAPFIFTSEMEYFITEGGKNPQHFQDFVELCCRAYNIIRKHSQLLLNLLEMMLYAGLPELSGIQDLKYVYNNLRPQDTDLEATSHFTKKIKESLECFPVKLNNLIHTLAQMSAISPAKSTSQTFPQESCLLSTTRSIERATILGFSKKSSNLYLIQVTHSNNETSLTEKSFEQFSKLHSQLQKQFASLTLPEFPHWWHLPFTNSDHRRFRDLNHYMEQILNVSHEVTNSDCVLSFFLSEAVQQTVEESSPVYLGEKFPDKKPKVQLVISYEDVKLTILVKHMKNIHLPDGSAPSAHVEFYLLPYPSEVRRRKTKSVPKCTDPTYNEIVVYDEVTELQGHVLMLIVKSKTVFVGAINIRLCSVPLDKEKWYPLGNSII

[7] = tested on: LNCaP C4-2B; test: C4-2B cell line Proliferation assay; type: functional, Homo sapiens; conditions: time 6 day

Tyrosine-protein kinase ABL1 (Homo sapiens), sequence (P00519 whole entry): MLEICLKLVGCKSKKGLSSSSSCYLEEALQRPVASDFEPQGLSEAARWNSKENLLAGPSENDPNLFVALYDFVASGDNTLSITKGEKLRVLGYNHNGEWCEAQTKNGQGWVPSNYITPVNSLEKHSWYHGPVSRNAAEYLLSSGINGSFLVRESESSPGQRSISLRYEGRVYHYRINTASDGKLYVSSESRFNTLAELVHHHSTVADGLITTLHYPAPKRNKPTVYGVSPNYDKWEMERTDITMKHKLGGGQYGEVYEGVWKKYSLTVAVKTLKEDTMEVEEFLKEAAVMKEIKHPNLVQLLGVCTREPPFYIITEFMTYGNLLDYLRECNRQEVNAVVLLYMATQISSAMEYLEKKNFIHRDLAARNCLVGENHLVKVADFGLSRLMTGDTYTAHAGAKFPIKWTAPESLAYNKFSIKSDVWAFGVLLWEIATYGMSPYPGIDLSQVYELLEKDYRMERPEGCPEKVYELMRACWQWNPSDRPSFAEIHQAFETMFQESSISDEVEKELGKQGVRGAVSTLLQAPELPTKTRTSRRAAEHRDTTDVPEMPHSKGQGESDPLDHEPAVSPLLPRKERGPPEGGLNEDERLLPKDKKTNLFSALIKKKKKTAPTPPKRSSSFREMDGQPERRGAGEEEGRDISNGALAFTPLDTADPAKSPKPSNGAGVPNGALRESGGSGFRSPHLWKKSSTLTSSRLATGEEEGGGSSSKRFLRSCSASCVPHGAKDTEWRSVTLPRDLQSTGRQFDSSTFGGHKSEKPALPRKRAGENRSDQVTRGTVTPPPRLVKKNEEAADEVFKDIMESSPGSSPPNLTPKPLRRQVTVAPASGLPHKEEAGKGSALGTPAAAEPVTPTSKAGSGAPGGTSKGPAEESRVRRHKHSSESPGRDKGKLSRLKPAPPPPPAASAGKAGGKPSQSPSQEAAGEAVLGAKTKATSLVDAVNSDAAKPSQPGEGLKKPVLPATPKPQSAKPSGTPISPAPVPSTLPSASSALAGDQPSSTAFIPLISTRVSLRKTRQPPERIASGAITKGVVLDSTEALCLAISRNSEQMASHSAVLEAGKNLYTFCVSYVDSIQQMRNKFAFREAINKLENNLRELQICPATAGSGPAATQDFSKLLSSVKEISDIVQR
Protein-tyrosine kinase 6 (Homo sapiens), sequence (Q13882 whole entry, looked up): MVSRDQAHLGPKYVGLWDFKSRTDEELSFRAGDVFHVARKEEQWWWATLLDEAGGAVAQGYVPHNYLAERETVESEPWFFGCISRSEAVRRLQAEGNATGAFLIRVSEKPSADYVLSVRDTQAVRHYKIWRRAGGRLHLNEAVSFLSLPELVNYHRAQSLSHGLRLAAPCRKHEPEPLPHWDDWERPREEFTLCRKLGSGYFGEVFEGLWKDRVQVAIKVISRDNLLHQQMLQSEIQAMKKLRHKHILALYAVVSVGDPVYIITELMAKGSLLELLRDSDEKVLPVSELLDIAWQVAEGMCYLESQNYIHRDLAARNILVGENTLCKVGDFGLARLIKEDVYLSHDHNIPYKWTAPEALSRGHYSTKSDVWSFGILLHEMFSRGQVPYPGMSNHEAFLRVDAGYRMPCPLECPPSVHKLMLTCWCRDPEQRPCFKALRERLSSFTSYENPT

CCc1ccccc1C(=O)Nc1n[nH]c2c(C)c(F)c(C3C(C#N)=C(C)N(C)C(C)=C3C#N)cc12 [BAY-3827]
inactive: % residual kinase activity [1] 131% | % residual kinase activity [2] 104% | % residual kinase activity [3] 72% | % residual kinase activity [4] 100% | % residual kinase activity [5] 98% | % residual kinase activity [6] 100%
>10 µM: Cell Proliferation IC50 [7]
